ChEMBL document CHEMBL1133856, “2-Aryl indole NK(1) antagonists: optimisation of the amide substituent” (Bioorg Med Chem Lett, 2001)
pIC50: −log10 of the molar value. “And” between values parts separate entries of the source, which are not always exact repeats. Equal entries are not always repeated.

Legend:
Substance-P receptor = Substance-P receptor (Homo sapiens, UniProt P25103); assay: Ability to displace [125I]-labeled substance P from human cloned Tachykinin receptor 1 in CHO cells.; type: cell-based
Gerbillinae [1] = assay: In vivo percent inhibition of gerbil foot tapping 0 hours after iv administration of 3 mg/kg; type: functional
Gerbillinae [2] = assay: In vivo percent inhibition of gerbil foot tapping 2 hours after iv administration of 3 mg/kg; type: functional
Gerbillinae [3] = assay: In vivo percent inhibition of gerbil foot tapping 2 hours after iv administration of 1 mg/kg; type: functional
Gerbillinae [4] = assay: In vivo percent inhibition of gerbil foot tapping 0 hours after iv administration of 1 mg/kg; type: functional
[5] = Plasma clearance rate determined in rat; type: ADME, organism-based
[6] = Maximum plasma concentration determined in rat; type: ADME, organism-based
[7] = Time for maximum plasma concentration determined in rat; type: ADME, organism-based
Gerbillinae [8] = assay: In vivo percent inhibition of gerbil foot tapping 0 hours after iv administration at 3 mg/kg; type: functional
[9] = Steady state volume of distribution determined in rat; type: ADME, organism-based; settings: in vivo, read-out: Vss
[10] = Oral bioavailability in rat; type: ADME, organism-based; settings: in vivo
[11] = Mean residence time determined in rat; type: ADME, organism-based; settings: in vivo, read-out: Time
[12] = Plasma half life determined in rat; type: ADME, organism-based; settings: read-out: Time (converted)
Gerbillinae [13] = assay: Inhibitory dose against gerbil foot tapping 2 hours after iv administration; type: functional
[14] = Half life of compound determined in rat; type: ADME, organism-based; settings: in vivo, read-out: Time (converted)

Chain of Substance-P receptor (P25103 whole entry): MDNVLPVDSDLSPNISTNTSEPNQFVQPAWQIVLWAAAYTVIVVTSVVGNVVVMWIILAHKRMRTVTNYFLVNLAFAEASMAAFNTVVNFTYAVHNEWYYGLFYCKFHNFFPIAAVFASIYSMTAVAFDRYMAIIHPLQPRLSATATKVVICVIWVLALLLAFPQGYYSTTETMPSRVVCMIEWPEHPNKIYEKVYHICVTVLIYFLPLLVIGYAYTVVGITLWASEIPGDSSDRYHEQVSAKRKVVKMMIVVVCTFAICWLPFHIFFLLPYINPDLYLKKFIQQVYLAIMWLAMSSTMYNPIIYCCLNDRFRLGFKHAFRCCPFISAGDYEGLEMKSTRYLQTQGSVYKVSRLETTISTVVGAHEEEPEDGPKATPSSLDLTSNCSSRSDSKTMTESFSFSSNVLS

In the case of Cn1c(-c2ccc(Cl)cc2)c(CCC(=O)N2CCC(CO)(c3ccccc3)CC2)c2cc(Cl)ccc21, the pIC50 (Substance-P receptor) was 7.26.

Cn1c(-c2ccc(Cl)cc2)c(CCC(=O)N2CCC(F)(Cc3ccccc3)CC2)c2cc(Cl)ccc21 gave a pIC50 (Substance-P receptor) of 9.26.

For Cn1c(-c2ccc(Cl)cc2)c(CCC(=O)N2CCN(CC3CC3)CC2)c2cc(Cl)ccc21, the pIC50 (Substance-P receptor) was 9.11.

Work on CC(C)N1CCN(C(=O)CCc2c(-c3ccc(Cl)cc3)n(C)c3ccc(Cl)cc23)CC1 yielded a pIC50 (Substance-P receptor) of 7.89.

For Cn1c(-c2ccc(Cl)cc2)c(CCC(=O)N2CCN(C3CCCCC3)CC2)c2cc(Cl)ccc21, the inhibition in vivo at 3 mg/kg (Gerbillinae [1]) was 100%, the inhibition in vivo at 3 mg/kg (Gerbillinae [2]) was 7% and the pIC50 (Substance-P receptor) was 9.46.

Work on Cn1c(-c2ccc(Cl)cc2)c(CCC(=O)N2CCN(Cc3ccccc3)C(=O)C2)c2cc(Cl)ccc21 yielded a pIC50 (Substance-P receptor) of 9.41.

CN(C(=O)CN1CCN(C(=O)CCc2c(-c3ccc(Cl)cc3)n(C)c3ccc(Cl)cc23)CC1)c1ccccc1 gave an inhibition in vivo at 1 mg/kg (Gerbillinae [3]) of 6%, an inhibition in vivo at 1 mg/kg (Gerbillinae [4]) of 87% and a pIC50 (Substance-P receptor) of 9.89.

CC(C)CCN1CCN(C(=O)CCc2c(-c3ccc(Cl)cc3)n(C)c3ccc(Cl)cc23)CC1 showed a pIC50 (Substance-P receptor) of 9.47.

For COc1ccccc1N1CCN(C(=O)CCc2c(-c3ccc(Br)cc3)[nH]c3ccc(C)cc23)CC1, the clearance [5] was 179 mL/min/kg, the Cmax [6] was 2 ng/mL and the Tmax [7] was 1.1 h. The inhibition in vivo at 3 mg/kg (Gerbillinae [8]) was 46%, the Vd [9] was 9.5 L/kg and the bioavailability [10] was 3%. For the same compound, the MRT [11] was 0.9 h and the half-life [12] was 1.4 h.

Cn1c(-c2ccc(Cl)cc2)c(CCC(=O)N2CCN(CC3CCCCC3)CC2)c2cc(Cl)ccc21 showed a pIC50 (Substance-P receptor) of 8.54.

Compound CCC(=O)N(c1ccccc1)C1CCN(C(=O)CCc2c(-c3ccc(Cl)cc3)n(C)c3ccc(Cl)cc23)CC1 has an Inhibition (Gerbillinae [1]) of 100%, an Inhibition (Gerbillinae [2]) of 50% and a pIC50 (Substance-P receptor) of 9.80.

Compound Cn1c(-c2ccc(Cl)cc2)c(CCC(=O)N2CCN(CC(=O)Nc3ccccc3)CC2)c2cc(Cl)ccc21 has a pIC50 (Substance-P receptor) of 7.52.

With Cn1c(-c2ccc(Cl)cc2)c(CCC(=O)N2CCC(Nc3ccccc3)CC2)c2cc(Cl)ccc21 the pIC50 (Substance-P receptor) was 8.89.

In the case of Cn1c(-c2ccc(Cl)cc2)c(CCC(=O)N2CCC(O)(Cc3ccccc3)CC2)c2cc(Cl)ccc21, the ID50 (Gerbillinae [13]) was 0.3 mg/kg and 0.9 mg/kg, the half-life [14] was 3.1 h and the Cmax [6] was 4 ng/mL. The Tmax [7] was 1.2 h, the Vd [9] was 3.5 L/kg and the bioavailability [10] was 3%. For the same compound, the MRT [11] was 1.8 h and the pIC50 (Substance-P receptor) was 9.68.

With CC(=O)C1(c2ccccc2)CCN(C(=O)CCc2c(-c3ccc(Cl)cc3)n(C)c3ccc(Cl)cc23)CC1 the pIC50 (Substance-P receptor) was 9.28.

Cn1c(-c2ccc(Cl)cc2)c(CCC(=O)N2CCN(CC(C)(C)C)CC2)c2cc(Cl)ccc21 showed a pIC50 (Substance-P receptor) of 8.70.

Compound Cn1c(-c2ccc(Cl)cc2)c(CCC(=O)N2CCN(Cc3ccccc3)CC2)c2cc(Cl)ccc21 has an inhibition in vivo at 3 mg/kg (Gerbillinae [1]) of 100%, an inhibition in vivo at 3 mg/kg (Gerbillinae [2]) of 17% and a pIC50 (Substance-P receptor) of 9.52.

Cn1c(-c2ccc(Cl)cc2)c(CCC(=O)N2CCC(Cc3ccccc3)CC2)c2cc(Cl)ccc21 showed a pIC50 (Substance-P receptor) of 8.66.
